Results on 20 compounds are retold here after ChEMBL document CHEMBL4393668, “Discovery and Characterization of XY101, a Potent, Selective, and Orally Bioavailable RORγ Inverse Agonist for Treatment of Castration-Resistant Prostate Cancer” (J Med Chem, 2019).

The target in assay [1] is T1, Nuclear receptor ROR-gamma (Homo sapiens) (UniProt P51449).
T1 sequence (whole entry): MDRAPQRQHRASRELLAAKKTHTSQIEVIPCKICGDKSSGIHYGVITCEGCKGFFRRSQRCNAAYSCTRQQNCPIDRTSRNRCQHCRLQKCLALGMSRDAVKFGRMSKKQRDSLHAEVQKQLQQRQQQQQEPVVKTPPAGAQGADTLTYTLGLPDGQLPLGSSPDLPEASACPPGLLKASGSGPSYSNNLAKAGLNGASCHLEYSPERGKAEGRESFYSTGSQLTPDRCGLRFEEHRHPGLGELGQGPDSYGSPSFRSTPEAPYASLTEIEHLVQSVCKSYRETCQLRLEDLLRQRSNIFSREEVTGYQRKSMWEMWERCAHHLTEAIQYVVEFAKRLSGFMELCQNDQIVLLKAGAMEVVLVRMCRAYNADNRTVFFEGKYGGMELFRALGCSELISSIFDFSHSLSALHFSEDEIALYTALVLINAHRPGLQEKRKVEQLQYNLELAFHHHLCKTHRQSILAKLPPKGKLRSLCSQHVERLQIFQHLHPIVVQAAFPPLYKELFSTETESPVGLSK

Assay [2] has as its target T2, Nuclear receptor ROR-gamma (Homo sapiens, UniProt P51449).
T2 sequence (P51449 whole entry): T1 sequence (whole entry)
The assay is described as follows: Inverse agonist activity at Gal4-fused RORgamma LBD (unknown origin) expressed in 293T cells measured after 24 hrs by dual-luciferase reporter gene assay. In kind it is cell-based.

One may read the ΔTm as the shift of the melting midpoint relative to a reference. What is called IC50 is the concentration that inhibits the measured activity by half. Low values mean greater potency, high ones weaker potency. For `O=C(CCCC1CCCCC1)Nc1ccc(-c2ccc(C(O)(C(F)(F)F)C(F)(F)F)cc2F)cc1`, the ΔTm in assay [1] worked out at 6.5 °C. Further, the IC50 in assay [2] was 1080 nM.

For `O=C(CCc1ccccc1)Nc1ccc(-c2ccc(C(O)(C(F)(F)F)C(F)(F)F)cc2F)cc1`, the ΔTm in assay [1] worked out at 5.2 °C. Further, in assay [2], the IC50 stood at 1980 nM.

On to `O=C(CCC(F)(F)F)Nc1ccc(-c2ccc(C(O)(C(F)(F)F)C(F)(F)F)cc2F)cc1`, for which the ΔTm in assay [1] was found to be 7.8 °C. For the same compound, in assay [2], the concentration for half-maximal inhibition (IC50) turned out to be 3080 nM.

On to `COC(=O)CCCC(=O)Nc1ccc(-c2ccc(C(O)(C(F)(F)F)C(F)(F)F)cc2F)cc1`, for which the ΔTm in assay [1] was 5.4 °C. Also, in assay [2], the IC50 is 930 nM.

Consider `CC(=O)CCCC(=O)Nc1ccc(-c2ccc(C(O)(C(F)(F)F)C(F)(F)F)cc2F)cc1`, for which the ΔTm in assay [1] came out at 5 °C. The concentration for half-maximal inhibition (IC50) in assay [2] is 1520 nM.

With `O=[N+]([O-])c1ccc(CS(=O)(=O)Nc2ccc(-c3ccc(C(O)(C(F)(F)F)C(F)(F)F)cc3F)cc2)cc1`, the ΔTm in assay [1] turned out to be 1.5 °C. This compound also yielded an IC50 in assay [2] of 2220 nM.

For `O=C(Cc1ccc([N+](=O)[O-])cc1)Nc1ccc(-c2ccc(C(O)(C(F)(F)F)C(F)(F)F)cc2F)cc1`, the ΔTm in assay [1] was 6 °C.

Consider `N#Cc1ccc(CS(=O)(=O)Nc2ccc(-c3ccc(C(O)(C(F)(F)F)C(F)(F)F)cc3F)cc2)cc1`, for which the ΔTm in assay [1] came out at 0 °C. In assay [2], this compound returned an IC50 of 7550 nM.

Take `COC(=O)c1cccc(CS(=O)(=O)Nc2ccc(-c3ccc(C(O)(C(F)(F)F)C(F)(F)F)cc3F)cc2)c1`: in assay [1], the ΔTm amounted to 4 °C. This compound also yielded an IC50 in assay [2] of 4240 nM.

For `COC(=O)c1ccccc1CS(=O)(=O)Nc1ccc(-c2ccc(C(O)(C(F)(F)F)C(F)(F)F)cc2F)cc1`, in assay [1], the ΔTm came out at 2 °C. Besides, the IC50 in assay [2] was 2960 nM.

`Nc1ccc(CC(=O)Nc2ccc(-c3ccc(C(O)(C(F)(F)F)C(F)(F)F)cc3F)cc2)cc1`: in assay [1], the shift in melting temperature (ΔTm) is 1.5 °C.

Take `CCCCCC(=O)Nc1ccc(-c2ccc(C(O)(C(F)(F)F)C(F)(F)F)cc2F)cc1`: in assay [1], the ΔTm came to 5.9 °C. Moreover, the IC50 in assay [2] is 1830 nM.

In the case of `CCCCC(=O)Nc1ccc(-c2ccc(C(O)(C(F)(F)F)C(F)(F)F)cc2F)cc1`, the ΔTm in assay [1] was 6.3 °C.

On to `CS(=O)(=O)c1ccc(CS(=O)(=O)Nc2ccc(-c3ccc(C(O)(C(F)(F)F)C(F)(F)F)cc3F)cc2)cc1`, for which the thermal shift (ΔTm) in assay [1] was determined as 1 °C. This compound returned an IC50 in assay [2] of 7760 nM.

Consider `COC(=O)CCC(=O)Nc1ccc(-c2ccc(C(O)(C(F)(F)F)C(F)(F)F)cc2F)cc1`, for which, in assay [1], the ΔTm worked out at 5.2 °C. Besides, in assay [2], the IC50 worked out at 460 nM.

`Nc1ccccc1CC(=O)Nc1ccc(-c2ccc(C(O)(C(F)(F)F)C(F)(F)F)cc2F)cc1`: the shift in melting temperature (ΔTm) in assay [1] amounted to 1.5 °C.

Turning to `NC(=O)c1ccc(CS(=O)(=O)Nc2ccc(-c3ccc(C(O)(C(F)(F)F)C(F)(F)F)cc3F)cc2)cc1`, the ΔTm in assay [1] was 0 °C. The half-inhibitory concentration (IC50) in assay [2] is 8720 nM.

Take `O=[N+]([O-])c1cccc(CS(=O)(=O)Nc2ccc(-c3ccc(C(O)(C(F)(F)F)C(F)(F)F)cc3F)cc2)c1`: in assay [1], the ΔTm is 3.5 °C. This compound also came in with a half-maximal inhibitory concentration (IC50) in assay [2] of 1490 nM.

For the compound `O=[N+]([O-])c1ccccc1CS(=O)(=O)Nc1ccc(-c2ccc(C(O)(C(F)(F)F)C(F)(F)F)cc2F)cc1`, the ΔTm in assay [1] was 1 °C. In addition, the IC50 in assay [2] stood at 7660 nM.

For `CNC(=O)c1ccc(CS(=O)(=O)Nc2ccc(-c3ccc(C(O)(C(F)(F)F)C(F)(F)F)cc3F)cc2)cc1`, in assay [1], the ΔTm was determined as 0 °C. Moreover, the IC50 in assay [2] amounted to 8050 nM.
